Assay results reported in patent US12274703B2, “Compositions and methods of treatment for neurological disorders comprising a dementia” (Gliapharm SA, priority 2017, dated 2025).

What was measured:
astrocytes = experiment: Extracellular lactate quantification; format: cell-based, mouse; conditions: Mus musculus, Astrocyte; Appendix II; lactate secretion; read-out: EC50
Protocol: (§1) Primary cultures of cerebrocortical astrocytes were obtained from 1-2-day-old OF1 mouse pups (Charles River Laboratories). Briefly, cortices were isolated and minced in small pieces under a dissecting microscope. The cells were incubated for 30 min at 37° C. in a solution containing 20 U/ml of papain enzyme (Worthington Biochemical), L-cysteine 1 mM (Sigma), and 10 kU/ml DNase I (Worthington Biochemical) for an enzymatic dissociation. Papain activity was stopped by the addition of fetal calf serum (FCS) to the solution, and a single-cell suspension was then obtained by mechanical dissociation, which consisted in cells trituration in a DMEM (D7777, Sigma-Aldrich) medium (supplemented with 44 mm NaHCO3, and 10 ml/L antibiotic/antimycotic solution) containing 10% FCS. The cells were seeded at an average density of 6×10^4 cells/cm^2 in poly-D-lysine-coated 96, 12 or 6-well culture plates, depending on their use, and incubated at 37° C. in a humidified atmosphere containing 5% CO2/95% air. Culture medium was renewed twice per week. Cells were stimulated and harvested between DIV14 and DIV17, when confluence and cell growth were optimal.
Secretion of L-lactate was determined in the extracellular medium of 96-well plated astrocytes after 90 min stimulation (at 37° C., in 5% CO2/95% air conditions) with the drug of interest. The stimulation medium was composed of D5030 medium (completed with D-glucose 5 mM and 44 mM sodium bicarbonate) for 90 min in concentrations ranging from 0 to 100 μM.
Briefly, 200 μl of a Glycine (Sigma)-Semicarbazide (Acros) 0.2M pH 10 buffer containing 3 mM NAD (Roche) and LDH 14 U/ml (Roche) was added to each well of a 96-well plate containing 30 μl aliquots complemented with 20 μl fresh complete D5030 medium. Samples were incubated at 37° C. for 1 h. After samples cooled down at room temperature, the fluorescence intensity (340 nm excitation/450 nm emission) that represents the amount of NADH produced was measured, and lactate concentration values were determined from a standard curve of L-lactate.
Statistical analysis consisted in ANOVA followed by Fisher LSD post-hoc test for pair-wise comparisons.
Levels of lactate secreted by astrocytes were measured in the extracellular medium at 90 min after stimulation with hits (molecules) from the CDC54K library.

primary astrocytes = experiment: High throughput screening for lactate secretion: acidification of extracellular medium (SNARF5); format: cell-based, mouse; conditions: Mus musculus, Astrocyte, 1.5 h; Appendix I; primary screening, 10 uM, 90 min; relative to positive control; read-out: Score
Protocol: as §1
Secretion of lactate in a high-throughput screening (HTS) fashion was measured indirectly through the acidification of extracellular medium. To this end, primary astrocytes grown in 96-well plates for 17 days were stimulated with the compounds as listed herein.
After washing the cells twice with stimulation medium (DMEM (D5030, Sigma), 3 mM NaHCO3 and 5 mM Glucose) at 37° C., cells were stimulated with the compounds at a final concentration of 10 uM (1% DMSO final) in 50 ul per well of stimulation medium supplemented with 10 uM of the extracellular pH sensor SNARF-5F %-(AND-6)-CAR (Life Technologies Corporation). Each compound was tested in two different plates for duplicates.
After 90 min stimulation, fluorescence was read at exc. (excitation) 480 nm/emm. (emission) 580 nm and at exc 480 nm/emm. 630 nm. The ratio of fluorescence between 630 nm and 580 emission values, which represents extracellular pH, was calculated.
In each plate, 8 wells were used for negative controls (DMSO) and 8 wells were used for positive controls (CCCP 2 uM in DMSO). Z prime values were calculated for each of the plates tested and values <0 were discarded.
The average and SD of compounds' values tested in duplicates were calculated, and compound was noted as HIT when the difference between compound's average and negative control's average was greater than three times the sum of compound's SD and negative controls' SD. Only scores greater than 40% were considered as lead hits for the CDC54K library; for the remaining libraries, all hits were considered. Scores are calculated as the % of activity compared to the positive control in each plate (which is 100%).
Primary screening hits were cherry picked on new plates and confirmed for SNARF5 effect, after having discarded those compounds that are fluorescent (exc. 480 nm/emm. 580 nm or 630 nm) before stimulation. Extracellular medium was next analyzed for extracellular lactate quantification for secondary screening.
Identification of lactate-enhancing drugs with high throughput screening (HTS) experiments on astrocytes primary cultures using extracellular pH dye (SNARF5F 5-(and 6)-carboxylic acid) for 90 min. The procedure is described in Material and Methods (2. Cell culture, 2.1. HTS for lactate secretion and 2.2. Extracellular lactate quantification).
The procedure was performed as follows: • Primary screening: acidification of the extracellular medium • Primary screening confirmation: acidification of the extracellular medium, removal of compounds with fluorescent activity at exc. 480 nm/emm. 580 nm or 630 nm. • Secondary screening: dosage of extracellular lactate

Row | Compound | EC50 (astrocytes) [µM] | Emax at 10 µM (primary astrocytes) [%]
1 | COc1ccc(CCNc2ncnc3c2cnn3C)cc1 [K405-2595] | 3.51 | –
2 | O=S(=O)(Nc1ccc(Cl)cc1)c1ccc(F)c(Cl)c1 [T6947848] | 5.5 | –
3 | CC(Nc1ncnc2sccc12)c1ccccn1 (centres unmarked) [T5672380] | 3.91 | 76.5
4 | COc1ccc(NS(=O)(=O)c2ccc(NC(=O)C3CCCO3)cc2)cc1 (centres unmarked) [T5329723] | 4.61 | –
5 | CC(=O)N1CC(C)(C)c2cc(S(=O)(=O)Nc3ccc(F)cc3C)ccc21 [L302-0181] | 5.05 | –
6 | O=c1[nH]nc(OCCOc2ccc(Br)cc2)n1C1CC1 [T533260] | 6.84 | –
7 | COc1cccc(C(CNc2nc(C(F)(F)F)nc3ccccc23)N(C)C)c1 (centres unmarked) [T5800607] | 5.87 | –
8 | CC(=O)c1c(C)[nH]c(C(=O)N(C)Cc2ccc(C)cc2C)c1C [T5705522] | 2.53 | –
9 | Cc1nc2ccc(NC(=O)c3ccc4c(c3)CC(C)N4S(C)(=O)=O)cc2s1 (centres unmarked) [T5606387] | 4.61 | –
10 | CCn1c(=O)c(C)nc2cc(C(=O)N(Cc3ccc(F)cc3)C3CC3)ccc21 [T5586091] | 5.36 | –
11 | CCc1c(C)nc2ncnn2c1NC1CCCCCC1 [Z606-8351] | 5 | –
12 | O=S(=O)(Nc1ccc(S(=O)(=O)C(F)F)cc1)c1ccc(Cl)cc1 [T5311200] | 6.02 | –
13 | CCC(C)NS(=O)(=O)c1ccc(Oc2ccc(C)cc2)cc1 (centres unmarked) [T5400234] | 4.64 | –
14 | CCOc1ccc(CN(C)CC(=O)Nc2cccc(C)c2)cc1OC [T5318833] | 5.45 | –
15 | c1ccc(Cc2ccc(OCCn3ccnc3)cc2)cc1 [T5821723] | 4.29 | –
16 | COc1ccc(-c2csc(N3C(=O)CC4CS(=O)(=O)CC43)n2)cc1 (centres unmarked) [T5832764] | 4.02 | –
17 | c1nc(NCc2ccc3c(c2)OCO3)c2sccc2n1 [T5787526] | 3.89 | –
18 | CCc1cc2c(NC3CCCC3)ncnc2s1 [887-0183] | 3.94 | –
19 | CCOc1ccc(C2(O)C(C)[N+]3=C(CCC3)N2c2ccc(OC)cc2)cc1 (centres unmarked) [T0500-6629] | 2.61 | –
20 | Cc1cccc(NC(=O)c2ccc(S(=O)(=O)Nc3ccccc3)cc2)n1 [T6125251] | 4.56 | –
21 | Cc1sc2nc(CSc3nc4ccccc4[nH]3)nc(N)c2c1C [T5719257] | 2.85 | –
22 | COc1cc(C)c(NC(=O)Cc2ccc(Cl)c(Cl)c2)cc1OC [T5783794] | 6.11 | –

Row | Compound | EC50 (astrocytes) [µM] | Emax at 10 µM (primary astrocytes) [%]
23 | CCN(CC)S(=O)(=O)c1ccc(S(=O)(=O)Nc2ccc(C)cc2Cl)cc1 [T5453923] | 5.36 | –
24 | CCc1ccc(S(=O)(=O)Nc2c(C)nn(C)c2C)cc1 [T5753165] | 6.41 | –
25 | O=C(Nc1ccc(S(=O)(=O)NCC2CCCO2)cc1)c1ccccc1 (centres unmarked) [Y031-0361] | 8.23 | –
26 | CCc1ccc(NC(=O)Cc2cn(C)c3ncccc23)cc1 [M508-0370] | 4.58 | –
27 | Cc1cccc(NS(=O)(=O)c2ccc(F)c(Cl)c2)c1 [F3394-1364] | 5.87 | –
28 | Cc1sc2nc(CSc3nc4ccccc4c(=O)n3C)[nH]c(=O)c2c1C [T0517-2783] | 3.84 | –
29 | Cc1nc2ccccc2n1CCOc1ccc(Br)cc1 [T0505-4087] | 7.07 | –
30 | Cn1nc(C(=O)Nc2ccc(Oc3ccccc3Cl)cc2)ccc1=O [T5813085] | 4.1 | –
31 | CCOc1ccc(-c2csc3c(=O)n(Cc4ccncc4)cnc23)cc1OCC [L115-0403] | 3.28 | –
32 | CC(=O)c1c(C)[nH]c(C(=O)C(C)N(C)Cc2ccc3c(c2)OCO3)c1C (centres unmarked) [T5798761] | 4.01 | –
33 | Cc1ccc(OCCn2c(C)nc3ccccc32)cc1 [T5444083] | 4.59 | –
34 | COc1ccc(NS(=O)(=O)c2cccc(NC(=O)c3ccccc3)c2)cc1 [T5274959] | 4.12 | –
35 | CCCCN1C(=O)C(C)(C(=O)Nc2ccc(OCC)cc2)Oc2cccnc21 (centres unmarked) [P621-1364] | 5.86 | –
36 | Cc1ccc(-c2csc(NC(=O)c3ccncc3)n2)cc1[N+](=O)O [T5694329] | 1.59 | –
37 | FC(F)(F)c1cccc(CNc2ncnc3[nH]ncc23)c1 [F5285-0069] | 6.29 | –
38 | c1ccc(-c2c[nH]c3ncnc(NCCN4CCOCC4)c23)cc1 [T0513-0213] | 3.99 | –
39 | CCCC(=O)Nc1nc(-c2ccc3c(c2)CCO3)cs1 [T5691896] | 5.21 | –
40 | Cn1c(=O)c(N2CCC(NC(=O)Nc3cccc(Cl)c3)CC2)nc2ccccc21 [L932-0267] | 4.64 | –
41 | Cc1noc2ncnc(NC(C)CCc3ccccc3)c12 (centres unmarked) [E944-0182] | 3.99 | –
42 | CC(C)(C)NS(=O)(=O)c1cccc(C(=O)Nc2ccncc2)c1 [T5827594] | 5.02 | –
43 | COc1ccccc1NC(=O)CO/N=C(/N)c1cccc(C(F)(F)F)c1 [T5770640] | 4.86 | –
44 | CN(C)c1ccc2ncnc(N3CCN(C(=O)c4ccc(Cl)cc4)CC3)c2c1 [M381-0730] | 3.19 | –

Row | Compound | EC50 (astrocytes) [µM] | Emax at 10 µM (primary astrocytes) [%]
45 | O=C(Nc1ccc(F)c(F)c1)c1ccc(Cl)c(S(=O)(=O)N2CCCC2)c1 [T5450239] | 4.42 | –
46 | CCNc1cc(C)nc(Nc2ccc(NC(=O)Cc3ccccc3)cc2)n1 [G869-0064] | 4.26 | –
47 | CCNc1cc(C)nc(Nc2ccc(NC(=O)c3cccs3)cc2)n1 [G869-0071] | 4.9 | –
48 | CCc1ccc(S(=O)(=O)Nc2cc3c(cc2C)n(C)c(=O)n3C)cc1 [G433-0293] | 4.48 | –
49 | O=C(CN1CCCC1c1ccc2c(c1)OCCCO2)Nc1cc(F)cc(F)c1 (centres unmarked) [T5993799] | 8.81 | –
50 | Cc1ccc(S(=O)(=O)Nc2ccc(F)c(F)c2F)cc1[N+](=O)[O-] [T5729557] | 5.69 | –
51 | N#Cc1ccc(S(=O)(=O)Nc2ccccc2C(=O)NCc2ccccc2)cc1 [T5673322] | 7.42 | –
52 | C1CCCC(NC2=NCCCNC23CCCCC3)CC1 [Z076-0028] | 8.01 | –
53 | COc1ccc(NS(=O)(=O)c2cccc(NC(=O)c3cccs3)c2)cc1 [T0517-4117] | 5.43 | –
54 | CC(=O)N1CC(C)(C)c2cc(S(=O)(=O)NCc3ccc(C)cc3)ccc21 [L302-0069] | 6.27 | –
55 | CC(=O)Nc1cccc(NC(=O)CSc2nc(C)c(C)n2C2CCCC2)c1 [T5788339] | 3.9 | –
56 | CCc1cccc(NS(=O)(=O)c2ccc3c(c2)CCCN3C(C)=O)c1 [G855-0143] | 4.72 | –
57 | CC1(C)Cc2cccc(OCC(O)CN3CCc4ccccc4C3)c2O1 (centres unmarked) [T0515-1783] | 5.39 | –
58 | CCCCn1c(CN(C)Cc2ccccc2)nc2c1c(=O)n(C)c(=O)n2C [T5788545] | 3.59 | –
59 | CCc1ccc(NS(=O)(=O)c2c(C)c(-c3nnc(C4CC4)o3)n(C)c2C)cc1 [M950-1515] | 4.06 | –
60 | CN1c2ccccc2C(=O)NC1c1ccc(Cl)c(Cl)c1 (centres unmarked) [T5389517] | 5.74 | –
61 | Cc1c(O)ccc2c(CN(C)CC3COc4ccccc4O3)cc(=O)oc12 (centres unmarked) [T5494352] | 5.02 | –
62 | Cc1nc2ncnn2c(NC2CCCCCC2)c1C [Z606-8287] | 4.29 | –
63 | CCc1c(C)nc2ncnn2c1NC1CCCCC1 [Z606-8352] | 4.11 | –
64 | N#Cc1cc(C(=O)c2cc(F)ccc2O)cn(-c2ccc(F)c(Cl)c2)c1=O [T0516-6894] | 8.21 | –
